Laboratory results published in US20260062437A1, “ANTIVIRAL COMPOUNDS” (priority 2022, published 2026).
Entries after “also recorded” stand apart in the source; their conditions may differ. Where two headings read alike, the source gives them in different places.

Tests used:
ZIKV [1] = assay: Antiviral testing against ZIKV; type: cell-based, Zika Virus
Vero cells = assay: Cytotoxicity assay (Alamar blue) in Vero cells; type: cell-based; conditions: for decrease in cell viability: after 5 days (HLB-0532246: at high concentrations); for cytotoxicity / change in cell viability: after 2 or 5 days; for change in cell viability: over/after 5 days
Method: (§1) HUH7 and Vero cell lines were maintained in a humidified 5% CO2 environment at 37° C. HUH7 cells were cultured in DMEM (4500 mg/L “high glucose”+L-glutamine+25 mM HEPES-sodium pyruvate) supplemented with fetal bovine serum (10% FBS), penicillin (100 IU/mL), streptomycin ([…]), and 1% nonessential amino acids (NEAA). Vero cells were cultured in EMEM media supplemented with FBS (10% FBS), penicillin (100 IU/mL), and streptomycin (100 μg/mL). Cytotoxicity assays were done similarly to a previous report (J. Med. Chem. 2021, 64, 15429-15439). HUH7 or Vero cells were seeded at 2,000 cells/well in their appropriate cell culture media (50 μL) in 96-well clear plates and incubated for 24 hours. A DMSO solution of each individual compound was serially diluted (solution concentrations of 0.1, 0.5 and 1.0 mM were made) in the appropriate cell line media, and each solution (50 μL) was dosed to the cells (well volume total of 100 μL; final DMSO concentration of 0.5%). DMSO-only and no-cell control wells were dosed with a DMSO-media solution (50 μL of 1% DMSO in media) rather than compound. The cells were then incubated for 2 or 5 days. Two hours before the designated time point, Alamar blue (10 μL) was added to each well. At the time point, fluorescence data were measured using a BioTek Synergy H1 microplate reader. Cell viability was calculated by subtracting background fluorescence (no-cell control) from the measured fluorescence of each well. Wells with compounds were normalized to the DMSO-only control (100% viability) and no-cell controls. Each individual experiment was performed in groups of three technical replicates. For the reported Vero studies, cytotoxicity experiments were repeated in biological triplicate. The final cell viability percentage was calculated by averaging % viability from each of the biological replicates, and the uncertainty was calculated by propagating the standard deviations from each biological replicate (taking the square root of the sum of the squares of individual standard deviations).

West Nile Virus = assay: Antiviral plaque assay with West Nile Virus; type: cell-based
HUH7 cells = assay: Cytotoxicity assay (Alamar blue) in HUH7 cells; type: cell-based; conditions: for decrease in cell viability: after 5 days (HLB-0532246: at high concentrations); for change in cell viability: over/after 5 days; for cytotoxicity / change in cell viability: after 2 or 5 days
Method: as §1

polymerase of WNV = polymerase of WNV (West Nile virus, UniProt P06935); conditions: cited from earlier work
polymerase of polio (PV) = polymerase of polio (PV) (Poliovirus type 1, UniProt P03300); conditions: cited from earlier work
polymerase of ZIKV = polymerase of ZIKV (Zika virus, UniProt Q32ZE1); conditions: cited from earlier work
polymerase of SARS-CoV-2 = polymerase of SARS-CoV-2 (Severe acute respiratory syndrome coronavirus 2, UniProt P0DTD1); conditions: cited from earlier work
[2] = molecular target: polymerase of dengue (DENV) (Dengue virus type 2, UniProt P29990); conditions: cited from earlier work
[3] = molecular target: polymerase of hepatitis C (HCV) (Hepatitis C virus genotype 1a, UniProt P27958); conditions: cited from earlier work
WNV = conditions: previously tested, cited from earlier work
ZIKV [4] = conditions: cited from earlier work; for antiviral activity against ZIKV: previously tested

Sequence of polymerase of dengue (DENV) (P29990 2492-3391): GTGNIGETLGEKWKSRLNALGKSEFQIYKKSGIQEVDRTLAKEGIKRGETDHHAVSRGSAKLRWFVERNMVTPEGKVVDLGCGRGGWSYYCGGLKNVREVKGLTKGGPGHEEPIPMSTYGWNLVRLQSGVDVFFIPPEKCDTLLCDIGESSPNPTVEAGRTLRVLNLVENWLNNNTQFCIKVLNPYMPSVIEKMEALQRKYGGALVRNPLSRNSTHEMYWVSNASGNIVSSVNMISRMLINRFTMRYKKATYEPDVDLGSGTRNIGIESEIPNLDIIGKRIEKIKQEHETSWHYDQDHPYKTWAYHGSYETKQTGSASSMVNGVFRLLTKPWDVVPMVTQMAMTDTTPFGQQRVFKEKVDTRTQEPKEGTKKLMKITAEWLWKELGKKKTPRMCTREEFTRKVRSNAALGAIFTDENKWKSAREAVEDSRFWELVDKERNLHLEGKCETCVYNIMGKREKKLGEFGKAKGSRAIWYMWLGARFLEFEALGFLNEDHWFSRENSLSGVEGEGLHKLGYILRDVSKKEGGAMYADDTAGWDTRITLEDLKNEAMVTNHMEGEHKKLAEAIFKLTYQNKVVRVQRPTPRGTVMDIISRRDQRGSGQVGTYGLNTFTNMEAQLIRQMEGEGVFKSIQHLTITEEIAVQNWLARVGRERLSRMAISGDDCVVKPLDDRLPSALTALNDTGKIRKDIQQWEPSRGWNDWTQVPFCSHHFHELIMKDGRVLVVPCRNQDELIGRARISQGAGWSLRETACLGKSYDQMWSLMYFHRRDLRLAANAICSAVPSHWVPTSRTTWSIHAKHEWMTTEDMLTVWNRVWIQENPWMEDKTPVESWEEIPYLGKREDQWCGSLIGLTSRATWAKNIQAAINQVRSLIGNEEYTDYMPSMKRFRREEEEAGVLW
Sequence of polymerase of ZIKV (Q32ZE1 2517-3419): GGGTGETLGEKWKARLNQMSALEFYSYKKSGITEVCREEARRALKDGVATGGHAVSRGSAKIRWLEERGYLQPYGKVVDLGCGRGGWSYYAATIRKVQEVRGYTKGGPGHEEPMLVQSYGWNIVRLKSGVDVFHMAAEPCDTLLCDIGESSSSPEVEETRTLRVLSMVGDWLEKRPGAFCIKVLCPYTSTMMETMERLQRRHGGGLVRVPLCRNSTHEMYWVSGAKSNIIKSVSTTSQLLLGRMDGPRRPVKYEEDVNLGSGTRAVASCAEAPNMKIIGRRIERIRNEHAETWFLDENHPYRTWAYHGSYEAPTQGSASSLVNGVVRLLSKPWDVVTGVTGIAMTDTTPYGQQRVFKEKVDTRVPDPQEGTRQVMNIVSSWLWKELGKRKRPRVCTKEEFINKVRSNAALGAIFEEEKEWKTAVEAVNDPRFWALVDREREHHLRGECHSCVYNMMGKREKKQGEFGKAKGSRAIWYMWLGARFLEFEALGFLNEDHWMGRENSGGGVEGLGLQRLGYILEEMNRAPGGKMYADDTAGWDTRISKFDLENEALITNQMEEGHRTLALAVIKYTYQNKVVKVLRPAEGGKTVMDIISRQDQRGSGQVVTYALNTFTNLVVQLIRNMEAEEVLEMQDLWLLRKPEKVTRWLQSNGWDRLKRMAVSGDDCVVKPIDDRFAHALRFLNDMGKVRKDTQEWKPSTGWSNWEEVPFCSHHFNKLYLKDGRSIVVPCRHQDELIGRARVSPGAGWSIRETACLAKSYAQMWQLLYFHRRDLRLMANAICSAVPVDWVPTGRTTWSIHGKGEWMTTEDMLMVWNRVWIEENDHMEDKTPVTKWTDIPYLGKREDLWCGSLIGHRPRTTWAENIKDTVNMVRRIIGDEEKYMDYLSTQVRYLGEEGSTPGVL
Sequence of polymerase of hepatitis C (HCV) (P27958 2421-3011 limits assumed): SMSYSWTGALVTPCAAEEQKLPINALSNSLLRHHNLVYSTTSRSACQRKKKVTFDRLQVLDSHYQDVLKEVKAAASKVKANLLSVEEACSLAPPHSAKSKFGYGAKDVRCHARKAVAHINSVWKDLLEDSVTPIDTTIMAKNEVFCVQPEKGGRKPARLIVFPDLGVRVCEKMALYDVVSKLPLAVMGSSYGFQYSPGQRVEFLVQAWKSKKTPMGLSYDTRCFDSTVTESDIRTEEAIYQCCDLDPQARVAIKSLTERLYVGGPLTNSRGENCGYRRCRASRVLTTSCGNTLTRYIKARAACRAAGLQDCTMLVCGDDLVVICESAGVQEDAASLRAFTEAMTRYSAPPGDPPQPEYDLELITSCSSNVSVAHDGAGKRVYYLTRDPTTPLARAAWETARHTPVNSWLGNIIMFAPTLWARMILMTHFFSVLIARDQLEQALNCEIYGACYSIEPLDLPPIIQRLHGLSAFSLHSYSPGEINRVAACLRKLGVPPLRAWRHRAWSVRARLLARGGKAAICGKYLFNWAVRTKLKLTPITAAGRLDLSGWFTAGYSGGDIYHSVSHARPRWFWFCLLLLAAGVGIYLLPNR
Sequence of polymerase of polio (PV) (P03300 1749-2209 limits assumed): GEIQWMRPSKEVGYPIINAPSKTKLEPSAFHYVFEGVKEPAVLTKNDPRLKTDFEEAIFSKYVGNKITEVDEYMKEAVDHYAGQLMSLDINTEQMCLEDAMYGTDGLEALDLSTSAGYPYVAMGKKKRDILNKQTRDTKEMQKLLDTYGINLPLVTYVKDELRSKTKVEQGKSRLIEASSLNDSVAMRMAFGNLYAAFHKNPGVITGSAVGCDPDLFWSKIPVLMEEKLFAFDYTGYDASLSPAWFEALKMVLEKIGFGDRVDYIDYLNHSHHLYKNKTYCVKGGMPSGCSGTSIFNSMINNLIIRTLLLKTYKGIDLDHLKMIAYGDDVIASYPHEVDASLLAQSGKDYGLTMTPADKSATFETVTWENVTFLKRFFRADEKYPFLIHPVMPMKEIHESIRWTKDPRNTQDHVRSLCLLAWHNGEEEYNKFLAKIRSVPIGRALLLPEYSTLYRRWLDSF
Sequence of polymerase of WNV (P06935 2526-3430): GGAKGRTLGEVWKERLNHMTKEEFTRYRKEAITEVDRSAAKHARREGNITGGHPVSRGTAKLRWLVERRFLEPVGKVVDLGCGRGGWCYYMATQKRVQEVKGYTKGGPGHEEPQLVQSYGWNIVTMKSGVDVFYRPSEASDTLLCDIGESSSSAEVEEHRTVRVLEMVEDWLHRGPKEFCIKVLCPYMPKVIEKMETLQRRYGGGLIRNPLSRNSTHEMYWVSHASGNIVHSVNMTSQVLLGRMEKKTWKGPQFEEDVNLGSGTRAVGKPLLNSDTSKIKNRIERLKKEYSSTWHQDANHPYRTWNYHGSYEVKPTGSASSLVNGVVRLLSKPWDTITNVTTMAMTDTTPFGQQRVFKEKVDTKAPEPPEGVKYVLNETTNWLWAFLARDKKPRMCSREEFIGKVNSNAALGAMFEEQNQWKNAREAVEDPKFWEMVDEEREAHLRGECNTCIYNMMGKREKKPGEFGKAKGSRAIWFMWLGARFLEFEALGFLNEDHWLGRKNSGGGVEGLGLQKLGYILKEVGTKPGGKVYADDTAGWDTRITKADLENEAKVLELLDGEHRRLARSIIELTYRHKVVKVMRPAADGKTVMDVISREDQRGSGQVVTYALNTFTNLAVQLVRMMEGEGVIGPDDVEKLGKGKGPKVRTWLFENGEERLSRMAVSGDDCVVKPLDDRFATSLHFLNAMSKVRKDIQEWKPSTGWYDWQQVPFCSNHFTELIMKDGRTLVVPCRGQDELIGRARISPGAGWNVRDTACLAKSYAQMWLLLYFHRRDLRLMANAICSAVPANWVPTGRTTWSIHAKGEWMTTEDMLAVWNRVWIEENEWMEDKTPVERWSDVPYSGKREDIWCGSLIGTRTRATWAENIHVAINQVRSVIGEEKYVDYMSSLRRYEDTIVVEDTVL

For `CC(C)OC(=O)[C@H](C)N[P@](=O)(OCC1=C[C@H](O)[C@H](n2ccc(=O)[nH]c2=O)O1)Oc1ccccc1` [HLB-0532254], the “antiviral activity against ZIKV” value (ZIKV [1]; at 1.0 mM) was “did not display antiviral activity”, the “antiviral activity against ZIKV” value (ZIKV [1]; dosed at 0.1 mM) was “potent activity” and the “decrease in cell viability” value (Vero cells) was 10%. The “antiviral activity against West Nile Virus” value (West Nile Virus) was “no activity; also recorded: not active” and the “decrease in cell viability” value (HUH7 cells) was 25%.
With `Cc1cn([C@@H]2OC(CO[P@@](=O)(N[C@@H](C)C(=O)OC(C)C)Oc3ccccc3)=C[C@@H]2O)c(=O)[nH]c1=O` [HLB-0535065] the “antiviral activity against ZIKV” value (ZIKV [1]) was “no activity”, the “cytotoxicity / change in cell viability” value (Vero cells) was “did not show any cytotoxicity” and the “antiviral activity against West Nile Virus” value (West Nile Virus) was “no activity”. It also gave a cell viability (HUH7 cells; by day 5) of 50%.
With `Nc1nc2c(ncn2[C@@H]2OC(CO)=C[C@@H]2O)c(=O)[nH]1` [HLB-0535072] the “antiviral activity against ZIKV” value (ZIKV [1]) was “Antiviral activity was observed”, the “cytotoxicity / change in cell viability” value (Vero cells) was “No significant change in cell viability” and the “antiviral activity against West Nile Virus” value (West Nile Virus) was “no activity”. The “change in cell viability” value (HUH7 cells) was “slight decrease in cell viability”.
With `Cc1cn([C@@H]2OC(CO)=C[C@@H]2O)c(=O)[nH]c1=O` [HLB-0535066] the “antiviral activity against ZIKV” value (ZIKV [1]) was “no activity”, the “cytotoxicity / change in cell viability” value (Vero cells) was “did not show any cytotoxicity” and the “antiviral activity against West Nile Virus” value (West Nile Virus) was “no activity”. The “change in cell viability” value (HUH7 cells) was “remained unchanged”.
For `Nc1ccn([C@@H]2OC(COP(=O)(O)OP(=O)(O)OP(=O)(O)O)=C[C@H]2O)c(=O)n1` [ddhCTP, 3′-Deoxy-3′,4′-didehydro-cytidine-5′-triphosphate], the “inhibition of WNV polymerase” value (polymerase of WNV) is listed as “inhibits”, the “inhibition of PV polymerase” value (polymerase of polio (PV)) is listed as “weak inhibition” and the “inhibition of ZIKV polymerase” value (polymerase of ZIKV) is listed as “inhibits”. For the same molecule, the “inhibition of SARS-CoV-2 polymerase” value (polymerase of SARS-CoV-2) was “inhibits”, the “inhibition of DENV polymerase” value [2] was “inhibits” and the “inhibition of HCV polymerase” value [3] was “inhibits”.
For `Nc1ccn([C@@H]2OC(CO)=C[C@@H]2O)c(=O)n1` [HLB-0532246, reference compound], the “antiviral activity against WNV” value (WNV; cell line not stated) is listed as “inactive”, the “decrease in cell viability” value (Vero cells) is listed as 10% and the “antiviral activity against ZIKV” value (ZIKV [4]; Vero cells) is listed as “demonstrated antiviral activity”. For the same molecule, the “decrease in cell viability” value (HUH7 cells) was 10%.
In the case of `CC(C)OC(=O)[C@H](C)N[P@](=O)(OCC1=C[C@H](O)[C@H](n2cnc3c(=O)[nH]c(N)nc32)O1)Oc1ccccc1` [HLB-0535073], the “antiviral activity against ZIKV” value (ZIKV [1]) is reported as “Antiviral activity was observed”, the “cytotoxicity / change in cell viability” value (Vero cells) is reported as “No significant change in cell viability” and the “antiviral activity against West Nile Virus” value (West Nile Virus) is reported as “no activity”. For the same molecule, the “cytotoxicity / change in cell viability” value (HUH7 cells) was “No significant change in cell viability”.
With `O=c1ccn([C@@H]2OC(CO)=C[C@@H]2O)c(=O)[nH]1` [HLB-0535069] the “antiviral activity against ZIKV” value (ZIKV [1]) was “did not display antiviral activity”, the “change in cell viability” value (Vero cells) was “did not show a significant decrease in cell viability” and the “antiviral activity against West Nile Virus” value (West Nile Virus) was “no activity”. The “change in cell viability” value (HUH7 cells) was “did not show a significant decrease in cell viability”.
For `CC(C)OC(=O)[C@H](C)N[P@](=O)(OCC1=C[C@H](O)[C@H](n2ccc(N)nc2=O)O1)Oc1ccccc1` [HLB-0532247], the “antiviral activity against WNV” value (WNV; HUH7 cells) is given as “potent antiviral activity”, the “cytotoxicity / change in cell viability” value (Vero cells) is given as “did not show any cytotoxicity” and the “antiviral activity against ZIKV” value (ZIKV [4]; HUH7 cells) is given as “potent antiviral activity”. The “antiviral activity against ZIKV” value (ZIKV [4]; Vero cells) was “potent antiviral activity” and the “cytotoxicity / change in cell viability” value (HUH7 cells) was “did not show any cytotoxicity”.
For `CC(C)OC(=O)[C@H](C)N[P@](=O)(OCC1=C[C@H](O)[C@H](n2cnc3c(=O)[nH]cnc32)O1)Oc1ccccc1` [HLB-0535083], the “antiviral activity against ZIKV” value (ZIKV [1]) was “no activity”, the “change in cell viability” value (Vero cells) was “No change in cell viability” and the “antiviral activity against West Nile Virus” value (West Nile Virus) was “no activity”. For the same molecule, the “change in cell viability” value (HUH7 cells) was “No change in cell viability”.
In the case of `Nc1ccn([C@@H]2OC(CO)=C[C@H]2O)c(=O)n1` [3′-deoxy-3′,4′-didehydro-cytidine], the “ZIKV inhibitory activity” value (ZIKV [4]; cellular studies (Gizzi et al., Nature 2018)) is given as “only weak ZIKV inhibitory activity”.
